Drawing on US6878713B2, “Generation triple-targeting, chiral, broad-spectrum antimicrobial 7-substituted piperidino-quinolone carboxylic acid derivatives, their preparation, compositions and use as medicaments” (Wockhardt Limited, priority 2001, dated 2005), this text covers melting point, MIC and MICs for 24 compounds.

Data set [1] relates to Fluoroquinolone Sensitive Strains. Put plainly: In-vitro antimicrobial test (MIC, two-fold serial agar dilution, NCCLS), Table 17. It counts as cell-based. The procedure:
The test method was in accordance with the standard NCCLS protocol (Methods for Dilution Antimicrobial Susceptibility Tests for Bacteria that grow Aerobicially, Approved Standards, M7-A5, Fifth Edition, January 2000).
The antibacterial activities (minimum inhibitory concentration: MIC, […]) were determined by using the two-fold serial agar dilution method recommended by NCCLS. The media used for preculture and main culture were Tryptic Soya broth (Difco) and Mueller Hinton medium (Difco), respectively. The Mueller Hinton agar was supplemented with 5% sheep blood for streptococci. Overnight cultures were diluted with buffered saline (pH 7.2) to the final cell density of 5×10^6-10^7 CFU/ml, and each bacterial suspension was applied with a replicator (Denley's multipoint inoculator, UK) onto a series of Mueller-Hinton agar plates containing antibacterial agents at various concentrations. Final inoculum was approximately 10^4 CFU/spot. The plates were incubated for 18 hrs at 37° C. The MIC was defined as the lowest concentration of an antibacterial agent that inhibits the development of visible microbial growth on agar.
In general terms: Agar dilution tests growth on a series of plates holding different concentrations.

Setting [2] is: Escherichia coli, ATCC25922, E. coli ATCC 25922.
[3] abbreviates: Staphylococcus aureus, ATCC 25923 / MSSA, MSSA ATCC 25923.
Where [4] appears, read: Streptococcus pneumoniae, ATCC49619, S. pneumoniae ATCC 49619.

In brackets after ≈: the same amount, converted by molar mass. A value given as a limit tells only on which side of the number the result lay.

The melting point is the temperature of the solid-liquid transition. `Cc1c(N2CCC(N)C(C)(C)C2)c(F)cc2c(=O)c(C(=O)O)cn(C3CC3)c12.Cl` (racemic) [Example 97] gave a melting point of 242 to 244 °C.

The term MIC denotes the least concentration at which growth counts as inhibited. Low values mean greater potency, high ones weaker potency. As for `COc1c(N2CCC(N)C(C)(C)C2)c(F)cc2c(=O)c(C(=O)O)cn(C3CC3)c12` (racemic) [Compound 17, (±)-1-Cyclopropyl-6-fluoro-1,4-dihydro-8-methoxy-7-(4-amino-3,3-dimethyl-1-piperidinyl)-4-oxo-quinoline-3-carboxylic acid], the MIC in data set [1] (setting [2]) and in data set [1] (setting [3]) was 0.4 µg/mL (≈ 0.991 µM) throughout.

`COc1c(N2CCC(O)C(C)C2)c(F)c(N)c2c(=O)c(C(=O)O)cn(C3CC3)c12` (stereo not shown) [Compound 135, 5-Amino-1-cyclopropyl-6-fluoro-1,4-dihydro-8-methoxy-7-(4-hydroxy-3-methyl-1-piperidinyl)-4-oxo-quinoline-3-carboxylic acid] registered a melting point of 240 to 244 °C.

`COc1c(N2CC(C)C(N)C(C)(C)C2)c(F)c(N)c2c(=O)c(C(=O)O)cn(C3CC3)c12` (stereo not shown) [Compound 87, 5-Amino-1-cyclopropyl-6-fluoro-1,4-dihydro-8-methoxy-7-(4-amino-3,3,5-trimethyl-1-piperidinyl)-4-oxo-quinoline-3-carboxylic acid] came in with a melting point of 248 to 252 °C.

Compound `CCNC1C(C)CN(c2c(F)cc3c(=O)c(C(=O)O)cn(C4CC4)c3c2OC)CC1C` (stereo not shown) [Example 39, 1-cyclopropyl-6-fluoro-1,4-dihydro-8-methoxy-7-(4-ethylamino-3,5-dimethyl-1-piperidinyl)-4-oxo-quinoline-3-carboxylic acid] came in with a melting point of 250 to 255 °C.

The compound `COc1c(N2CC[C@H](N)[C@H](C)C2)c(F)cc2c(=O)c(C(=O)O)cn(C3CC3)c12` (relative stereo) [Compound 5, cis-1-Cyclopropyl-6-fluoro-1,4-dihydro-8-methoxy-7-(4-amino-3-methyl-1-piperidinyl)-4-oxo-quinoline-3-carboxylic acid] showed a melting point of 246 to 250 °C.

`COc1c(N2CCC(N(C)C)C(C)(C)C2)c(F)cc2c(=O)c(C(=O)O)cn(C3CC3)c12` (stereo not shown) [Compound 38, 1-Cyclopropyl-6-fluoro-1,4-dihydro-8-methoxy-7-(4-dimethylamino-3,3-dimethyl-1-piperidinyl)-4-oxo-quinoline-3-carboxylic acid] came in with a melting point of 210 °C.

`CCNC1CCN(c2c(F)cc3c(=O)c(C(=O)O)cn(C4CC4)c3c2OC)CC1(C)C` (stereo not shown) [Compound 36, 1-Cyclopropyl-6-fluoro-1,4-dihydro-8-methoxy-7-(4-ethylamino-3,3-dimethyl-1-piperidinyl)-4-oxo-quinoline-3-carboxylic acid] showed a melting point of 230 to 232 °C.

In the case of `CCC1(C)CN(c2c(F)c(N)c3c(=O)c(C(=O)O)cn(C4CC4)c3c2OC)CCC1N` (stereo not shown) [Compound 77, 5-Amino-1-cyclopropyl-6-fluoro-1,4-dihydro-8-methoxy-7-(4-amino-3-ethyl-3-methyl-1-piperidinyl)-4-oxo-quinoline-3-carboxylic acid], the melting point was 210 °C (dec.).

With `COc1c(N2CCC(NC3CC3)C(C)C2)c(F)c(N)c2c(=O)c(C(=O)O)cn(C3CC3)c12` (stereo not shown) [Compound 62, 5-Amino-1-cyclopropyl-6-fluoro-1,4-dihydro-8-methoxy-7-(4-cyclopropylamino-3-methyl-1-piperidinyl)-4-oxo-quinoline-3-carboxylic acid], the melting point fell in the range of 218 to 220 °C.

`COc1c(N2CC(C)C(NC3CC3)C(C)C2)c(F)cc2c(=O)c(C(=O)O)cn(C3CC3)c12` (stereo not shown) [Example 41, 1-cyclopropyl-6-fluoro-1,4-dihydro-8-methoxy-7-(4-cyclopropylamino-3,5-dimethyl-1-piperidinyl)-4-oxo-quinoline-3-carboxylic acid] showed a melting point of 240 to 242 °C.

Regarding `CCNC1C(C)CN(c2c(F)c(N)c3c(=O)c(C(=O)O)cn(C4CC4)c3c2OC)CC1C` (stereo not shown) [Example 57, 5-amino-1-cyclopropyl-6-fluoro-1,4-dihydro-8-methoxy-7-(4-ethylamino-3,5-dimethyl-1-piperidinyl)-4-oxo-quinoline-3-carboxylic acid], the melting point fell in the range of 202 to 204 °C.

In the case of `Cc1c(N2CCC(N)C(C)(C)C2)c(F)cc2c(=O)c(C(=O)O)cn(C3CC3)c12` (single isomer, unassigned; (-)) [Compound 109, (−)-1-Cyclopropyl-6-fluoro-1,4-dihydro-8-methyl-7-(4-amino-3,3-dimethyl-1-piperidinyl)-4-oxo-quinoline-3-carboxylic acid], the melting point lay within 195 to 198 °C.

Turning to `COc1c(N2CC(C)C(O)C(C)(C)C2)c(F)cc2c(=O)c(C(=O)O)cn(C3CC3)c12` (stereo not shown) [Compound 147, 1-Cyclopropyl-6-fluoro-1,4-dihydro-8-methoxy-7-(4-hydroxy-3,3,5-trimethyl-1-piperidinyl)-4-oxo-quinoline-3-carboxylic acid], the MIC in data set [1] (setting [2]) is 0.4 µg/mL (≈ 0.956 µM); in data set [1] (setting [3]), < 0.006 µg/mL; in data set [1] (setting [4]) it was 0.1 µg/mL (≈ 0.239 µM).

`COc1c(N2CC(C)C(O)C(C)C2)c(F)cc2c(=O)c(C(=O)O)cn(C3CC3)c12` (stereo not shown) [Compound 145, 1-Cyclopropyl-6-fluoro-1,4-dihydro-8-methoxy-7-(4-hydroxy-3,5-dimethyl-1-piperidinyl)-4-oxo-quinoline-3-carboxylic acid]: the MIC in data set [1] (setting [2]) came to 1.56 µg/mL (≈ 3.86 µM); in data set [1] (setting [3]) it was 0.025 µg/mL (≈ 0.0618 µM); in data set [1] (setting [4]), 0.4 µg/mL (≈ 0.989 µM).

As for `Cc1c(N2CCC(N)C(C)(C)C2)c(F)c(N)c2c(=O)c(C(=O)O)cn(C3CC3)c12` (single isomer, unassigned; (-)) [Compound 133, (−)-5-Amino-1-cyclopropyl-6-fluoro-1,4-dihydro-8-methyl-7-(4-amino-3,3-dimethyl-1-piperidinyl)-4-oxo-quinoline-3-carboxylic acid], the MIC in data set [1] (setting [2]) was found to be 0.4 µg/mL (≈ 0.994 µM); in data set [1] (setting [3]), 0.025 µg/mL (≈ 0.0621 µM); in data set [1] (setting [4]), 0.2 µg/mL (≈ 0.497 µM).

Compound `Cc1c(N2CC[C@H](N)[C@H](C)C2)c(F)cc2c(=O)c(C(=O)O)cn(C3CC3)c12` (relative stereo) [Compound 99, cis-1-Cyclopropyl-6-fluoro-1,4-dihydro-8-methyl-7-(4-amino-3-methyl-1-piperidinyl)-4-oxo-quinoline-3-carboxylic acid] displayed a melting point of 224 to 228 °C.

On to `CCc1c(N2CC[C@H](O)[C@H](C)C2)c(F)cc2c(=O)c(C(=O)O)cn(C3CC3)c12` (relative stereo) [Compound 120, cis-1-Cyclopropyl-6-fluoro-8-ethyl-7-(4-hydroxy-3-methyl-1-piperidinyl)-1,4-dihydro-4-oxo-quinoline-3-carboxylic acid], for which the figures for the MIC in data set [1] (setting [2]), in data set [1] (setting [3]) and in data set [1] (setting [4]) were 0.8 µg/mL (≈ 2.06 µM), 0.1 µg/mL (≈ 0.257 µM) and 0.8 µg/mL (≈ 2.06 µM), respectively.

On to `Cc1c(N2CCC(N)C(C)(C)C2)c(F)c(N)c2c(=O)c(C(=O)O)cn(C3CC3)c12` (racemic) [Compound 131, (±)-5-Amino-1-cyclopropyl-6-fluoro-1,4-dihydro-8-methyl-7-(4-amino-3,3-dimethyl-1-piperidinyl)-4-oxo-quinoline-3-carboxylic acid], for which the MIC turned out to be 1.56 µg/mL (≈ 3.88 µM) in data set [1] (setting [2]) and 0.8 µg/mL (≈ 1.99 µM) in data set [1] (setting [3]).

With `CCOC(=O)NC1CCN(c2c(F)c(N)c3c(=O)c(C(=O)O)cn(C4CC4)c3c2OC)CC1(C)C` (stereo not shown) [Compound 70, 5-Amino-1-cyclopropyl-6-fluoro-1,4-dihydro-8-methoxy-7-(4-ethoxycarbonylamino-3,3-dimethyl-1-piperidinyl)-4-oxo-quinoline-3-carboxylic acid], the minimal inhibitory concentration (MIC) in data set [1] (setting [2]) amounted to 0.4 µg/mL (≈ 0.815 µM); in data set [1] (setting [3]) it was 0.05 µg/mL (≈ 0.102 µM); in data set [1] (setting [4]), 0.2 µg/mL (≈ 0.408 µM).

Regarding `Cc1c(N2CCC(O)C(C)C2)c(F)cc2c(=O)c(C(=O)O)cn(C3CC3)c12` (mixture of isomers) [Compound 92, cis/trans-1-Cyclopropyl-6-fluoro-8-methyl-7-(4-hydroxy-3-methyl-1-piperidinyl)-1,4-dihydro-4-oxo-quinoline-3-carboxylic acid], the MICs is 0.05 µg/mL in data set [1] (E. coli ATCC 25922) and 0.1 µg/mL in data set [1] (MSSA ATCC 25923).

On to `CCn1cc(C(=O)O)c(=O)c2cc(F)c(N3CC(C)C(NC)C(C)C3)c(OC)c21` (stereo not shown) [Compound 46, 1-Ethyl-6-fluoro-1,4-dihydro-8-methoxy-7-(4-methylamino-3,5-dimethyl-1-piperidinyl)-4-oxo-quinoline-3-carboxylic acid], for which the MIC in data set [1] (setting [2]) stood at 0.1 µg/mL (≈ 0.247 µM); in data set [1] (setting [3]), 0.05 µg/mL (≈ 0.123 µM); in data set [1] (setting [4]) it was 0.1 µg/mL (≈ 0.247 µM).

For the compound `COc1c(N2CC(C)C(NC3CC3)C(C)C2)c(F)cc2c(=O)c(C(=O)O)cn(C3CC3)c12` (stereo not shown) [Compound 48, 1-Cyclopropyl-6-fluoro-1,4-dihydro-8-methoxy-7-(4-cyclopropylamino-3,5-dimethyl-1-piperidinyl)-4-oxo-quinoline-3-carboxylic acid], the MIC in data set [1] (setting [2]) was 6.25 µg/mL (≈ 14.1 µM); in data set [1] (setting [3]), 1.56 µg/mL (≈ 3.52 µM); in data set [1] (setting [4]) it was > 6.25 µg/mL.

As for `COc1c(N2CCC(NC3CC3)C(C)(C)C2)c(F)c(N)c2c(=O)c(C(=O)O)cn(C3CC3)c12` (stereo not shown) [Compound 75, 5-Amino-1-cyclopropyl-6-fluoro-1,4-dihydro-8-methoxy-7-(4-cyclopropylamino-3,3-dimethyl-1-piperidinyl)-4-oxo-quinoline-3-carboxylic acid], the MIC in data set [1] (setting [2]) turned out to be 0.2 µg/mL (≈ 0.436 µM); in data set [1] (setting [3]), 0.05 µg/mL (≈ 0.109 µM); in data set [1] (setting [4]) it was 0.2 µg/mL (≈ 0.436 µM).
